Read-outs that look alike come from different tables or passages of the source.
What was measured:
[1] = target: T1, FITC-BSA (Bos taurus, UniProt P02769); test: MST binding to FITC-BSA; parameters: species or system bovine; conditions: 0.41 μM BSA
T1 construct: purchased Millipore Sigma-Aldrich
Procedure: Herein, a commercial FITC labeling kit (Section 3) was used to fluorescently tag both IFN- α 2b and BSA. Typically, in the labeling process, one amine per protein is labeled, statistically distributing the position of the dye. […] The MST assay was performed as detailed in Section 3. The solutions were prepared with a concentration of IFN- α 2b and BSA fixed at 0.41 μ M in water. For IFN- α 2b a concentration of 2.7 μ M was also prepared to compare it with previous results on MST-binding between FILs and IFN- α 2b fluorescently labeled with a different tag. In each run of MST, a maximum concentration of a ligand is selected and consecutively diluted in sixteen capillaries. […] The experimental conditions of the MST assay only allow the study of the aggregation phenomenon individually for the first CAC.
Microscale thermophoresis (MST) measurements of the dye-labeled protein were used to conduct binding investigations. […] MST tests were conducted in a monolith NT.115 (blue/red) in accordance with the NanoTemper Technologies methodology. Medium MST power and 20% LED power (nano-blue) were set as the instrument’s default settings. For every MST measurement, a PBS buffer was used. The concentration of FITC-BSA was fixed at 0.4 μ M and FITC-IFN- α 2b was tested under two different concentrations (of 0.4 and 2.7 μ M). The ligand was used to create a set of 16 1:1 dilutions, with the starting ligand concentrations ranging from 10 to 400 mM. The typical parameters for MST traces were used for recording: […], 30 s MST power on, and 5 s MST power off. The data from three independently conducted pipetted experiments were examined using NanoTemper Technologies’ MO.Affinity Analysis software, version 2.3.

[2] = target: T2, BSA (Bos taurus, UniProt P02769); test: DSC thermal unfolding of BSA in water and aqueous solutions of ABS phase-forming components; format: physicochemical, bovine; conditions: for Tm / ΔG / ΔHcal / ΔHcal/ΔHvH / ΔHvH / ΔS: 1.0 mg/mL BSA; for increase of BSA Tm (DSC): FIL at the highest concentration (120 mM) vs water
T2 construct: purchased Millipore Sigma-Aldrich
Procedure: Differential scanning calorimetry (DSC) measurements were performed with Nano DSC equipment, as detailed in Section 3, and used to determine the melting temperature (T m ) and enthalpy ( Δ H) of protein unfolding. DSC analyzes changes in the structure and stability of proteins as thermal transitions at the nanoscale. Using DSC to measure heat capacity as a function of the temperature of a well-studied protein such as BSA provides keen insights into folding and unfolding processes, as well as factors affecting stability. Due to the volume and concentration requirements of the DSC technique, and the constraints in available quantities of IFN- α 2b the DSC experiments on the ABS phase-forming components’ effect on the structural properties of proteins were attained only for BSA.
The T m of BSA, which corresponds to the thermal unfolding transition midpoint, was measured in the absence and presence of the ABS phase-forming components at increasing concentrations (see Figure 1 and Table 2).

[3] = max. conc. first capillary below 1st CAC (monomer)

T2 sequence (P02769 25-607): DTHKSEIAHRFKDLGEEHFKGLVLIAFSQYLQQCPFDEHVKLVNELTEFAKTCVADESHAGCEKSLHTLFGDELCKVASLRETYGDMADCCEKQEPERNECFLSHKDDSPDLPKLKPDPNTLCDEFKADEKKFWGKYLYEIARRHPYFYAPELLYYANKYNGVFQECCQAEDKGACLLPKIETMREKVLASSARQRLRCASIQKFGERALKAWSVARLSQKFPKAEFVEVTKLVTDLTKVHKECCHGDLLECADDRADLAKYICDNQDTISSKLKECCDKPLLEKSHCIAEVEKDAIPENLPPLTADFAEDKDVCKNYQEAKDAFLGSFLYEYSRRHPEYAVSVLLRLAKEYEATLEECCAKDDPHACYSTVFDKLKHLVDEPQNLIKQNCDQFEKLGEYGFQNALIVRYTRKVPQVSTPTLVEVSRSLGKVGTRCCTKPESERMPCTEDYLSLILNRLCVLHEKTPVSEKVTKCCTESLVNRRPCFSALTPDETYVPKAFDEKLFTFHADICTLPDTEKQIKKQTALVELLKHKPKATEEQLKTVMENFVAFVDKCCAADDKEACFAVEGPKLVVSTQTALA
T1 sequence (P02769 25-607): as above

CCCCn1cc[n+](C)c1.O=S(=O)([O-])C(F)(F)F [[C4C1Im][CF3SO3], 1-butyl-3-methylimidazolium trifluoromethanesulfonate]
Kd ([1]; max. conc. first capillary 12.5 mM (monomer)): no binding detected | Kd ([1]; max. conc. first capillary 400 mM (monomer)): no binding detected | Tm ([2]; 0.1 mM component): 74.54 °C | ΔG ([2]; 0.1 mM component): 17.42 kcal/mol | ΔHcal ([2]; 0.1 mM component): 122.6 kcal/mol | ΔHcal/ΔHvH ([2]; 0.1 mM component): 0.946 | ΔHvH ([2]; 0.1 mM component): 129.6 kcal/mol | ΔS ([2]; 0.1 mM component): 1.476 KJ/(mol.K) | Tm ([2]; 1 mM component): 75.31 °C | ΔG ([2]; 1 mM component): 14.67 kcal/mol | ΔHcal ([2]; 1 mM component): 100.9 kcal/mol | ΔHcal/ΔHvH ([2]; 1 mM component): 0.987 | ΔHvH ([2]; 1 mM component): 102.2 kcal/mol | ΔS ([2]; 1 mM component): 1.210 KJ/(mol.K) | Tm ([2]; 5 mM component): 81.43 °C | ΔG ([2]; 5 mM component): 27.34 kcal/mol | ΔHcal ([2]; 5 mM component): 171.4 kcal/mol | ΔHcal/ΔHvH ([2]; 5 mM component): 1.069 | ΔHvH ([2]; 5 mM component): 160.3 kcal/mol | ΔS ([2]; 5 mM component): 2.021 KJ/(mol.K) | Tm ([2]; 10 mM component): 79.02 °C | ΔG ([2]; 10 mM component): 19.07 kcal/mol | ΔHcal ([2]; 10 mM component): 123.7 kcal/mol | ΔHcal/ΔHvH ([2]; 10 mM component): 1.024 | ΔHvH ([2]; 10 mM component): 120.7 kcal/mol | ΔS ([2]; 10 mM component): 1.468 KJ/(mol.K) | Tm ([2]; 25 mM component): 72.02 °C | ΔG ([2]; 25 mM component): 11.14 kcal/mol | ΔHcal ([2]; 25 mM component): 80.45 kcal/mol | ΔHcal/ΔHvH ([2]; 25 mM component): 0.992 | ΔHvH ([2]; 25 mM component): 81.09 kcal/mol | ΔS ([2]; 25 mM component): 0.973 KJ/(mol.K) | Tm ([2]; 55 mM component): 72.44 °C | ΔG ([2]; 55 mM component): 12.4 kcal/mol | ΔHcal ([2]; 55 mM component): 89.82 kcal/mol | ΔHcal/ΔHvH ([2]; 55 mM component): 0.960 | ΔHvH ([2]; 55 mM component): 93.55 kcal/mol | ΔS ([2]; 55 mM component): 1.086 KJ/(mol.K) | Tm ([2]; 120 mM component): 76.32 °C | ΔG ([2]; 120 mM component): 16.9 kcal/mol | ΔHcal ([2]; 120 mM component): 114 kcal/mol | ΔHcal/ΔHvH ([2]; 120 mM component): 0.969 | ΔHvH ([2]; 120 mM component): 117.7 kcal/mol | ΔS ([2]; 120 mM component): 1.363 KJ/(mol.K) | effect on BSA Tm (DSC) ([2]; tested concentration range vs water): maintained

CCn1cc[n+](C)c1.O=S(=O)([O-])C(F)(F)C(F)(F)C(F)(F)C(F)(F)F [1-ethyl-3-methylimidazolium perfluorobutane sulfonate]
Kd [1, 3]: no binding detected | Kd ([1]; max. conc. first capillary in 1st CAC range, read-out: Kd): 1610 ± 390 µM | Kd ([1]; max. conc. first capillary in 2nd CAC range, read-out: Kd): 1730 ± 420 µM | Kd ([1]; max. conc. first capillary in 3rd CAC range, read-out: Kd): 2860 ± 1460 µM | Kd ([1]; max. conc. first capillary in 4th CAC range): no binding detected | Tm ([2]; 0.1 mM component): 75.55 °C | ΔG ([2]; 0.1 mM component): 17.28 kcal/mol | ΔHcal ([2]; 0.1 mM component): 120.2 kcal/mol | ΔHcal/ΔHvH ([2]; 0.1 mM component): 1.028 | ΔHvH ([2]; 0.1 mM component): 117 kcal/mol | ΔS ([2]; 0.1 mM component): 1.445 KJ/(mol.K) | Tm ([2]; 1 mM component): 75.62 °C | ΔG ([2]; 1 mM component): 20.41 kcal/mol | ΔHcal ([2]; 1 mM component): 141.5 kcal/mol | ΔHcal/ΔHvH ([2]; 1 mM component): 1.050 | ΔHvH ([2]; 1 mM component): 134.8 kcal/mol | ΔS ([2]; 1 mM component): 1.700 KJ/(mol.K) | Tm ([2]; 5 mM component): 80.59 °C | ΔG ([2]; 5 mM component): 30.02 kcal/mol | ΔHcal ([2]; 5 mM component): 190.7 kcal/mol | ΔHcal/ΔHvH ([2]; 5 mM component): 0.967 | ΔHvH ([2]; 5 mM component): 197.2 kcal/mol | ΔS ([2]; 5 mM component): 2.255 KJ/(mol.K) | Tm ([2]; 10 mM component): 80.94 °C | ΔG ([2]; 10 mM component): 29.09 kcal/mol | ΔHcal ([2]; 10 mM component): 183.6 kcal/mol | ΔHcal/ΔHvH ([2]; 10 mM component): 1.061 | ΔHvH ([2]; 10 mM component): 173.1 kcal/mol | ΔS ([2]; 10 mM component): 2.168 KJ/(mol.K) | Tm ([2]; 25 mM component): 82.57 °C | ΔG ([2]; 25 mM component): 32.53 kcal/mol | ΔHcal ([2]; 25 mM component): 200.3 kcal/mol | ΔHcal/ΔHvH ([2]; 25 mM component): 0.972 | ΔHvH ([2]; 25 mM component): 205.9 kcal/mol | ΔS ([2]; 25 mM component): 2.354 KJ/(mol.K) | Tm ([2]; 55 mM component): 84.28 °C | ΔG ([2]; 55 mM component): 39.89 kcal/mol | ΔHcal ([2]; 55 mM component): 239.24 kcal/mol | ΔHcal/ΔHvH ([2]; 55 mM component): 1.105 | ΔHvH ([2]; 55 mM component): 216.5 kcal/mol | ΔS ([2]; 55 mM component): 2.798 KJ/(mol.K) | Tm ([2]; 120 mM component): 86.15 °C | ΔG ([2]; 120 mM component): 33.99 kcal/mol | ΔHcal ([2]; 120 mM component): 198.6 kcal/mol | ΔHcal/ΔHvH ([2]; 120 mM component): 1.051 | ΔHvH ([2]; 120 mM component): 189 kcal/mol | ΔS ([2]; 120 mM component): 2.310 KJ/(mol.K) | increase of BSA Tm (DSC) [2]: approximately 11 °C

C[N+](C)(C)CCO.O=S(=O)([O-])C(F)(F)C(F)(F)C(F)(F)C(F)(F)F [[N1112(OH)][C4F9SO3], (2-hydroxyethyl)trimethylammonium perfluorobutane sulfonate]
Kd [1, 3]: no binding detected | Kd ([1]; max. conc. first capillary in 3rd CAC range): no binding detected | Tm ([2]; 0.1 mM component): 79.77 °C | ΔG ([2]; 0.1 mM component): 22.44 kcal/mol | ΔHcal ([2]; 0.1 mM component): 144.1 kcal/mol | ΔHcal/ΔHvH ([2]; 0.1 mM component): 1.064 | ΔHvH ([2]; 0.1 mM component): 135.5 kcal/mol | ΔS ([2]; 0.1 mM component): 1.708 KJ/(mol.K) | Tm ([2]; 1 mM component): 80.57 °C | ΔG ([2]; 1 mM component): 22.08 kcal/mol | ΔHcal ([2]; 1 mM component): 138.2 kcal/mol | ΔHcal/ΔHvH ([2]; 1 mM component): 0.921 | ΔHvH ([2]; 1 mM component): 150 kcal/mol | ΔS ([2]; 1 mM component): 1.629 KJ/(mol.K) | Tm ([2]; 5 mM component): 79.79 °C | ΔG ([2]; 5 mM component): 26.41 kcal/mol | ΔHcal ([2]; 5 mM component): 169.4 kcal/mol | ΔHcal/ΔHvH ([2]; 5 mM component): 0.884 | ΔHvH ([2]; 5 mM component): 191.5 kcal/mol | ΔS ([2]; 5 mM component): 2.007 KJ/(mol.K) | Tm ([2]; 10 mM component): 82.78 °C | ΔG ([2]; 10 mM component): 32.27 kcal/mol | ΔHcal ([2]; 10 mM component): 197.9 kcal/mol | ΔHcal/ΔHvH ([2]; 10 mM component): 1.156 | ΔHvH ([2]; 10 mM component): 171.3 kcal/mol | ΔS ([2]; 10 mM component): 2.325 KJ/(mol.K) | Tm ([2]; 25 mM component): 84.18 °C | ΔG ([2]; 25 mM component): 30.31 kcal/mol | ΔHcal ([2]; 25 mM component): 182 kcal/mol | ΔHcal/ΔHvH ([2]; 25 mM component): 1.019 | ΔHvH ([2]; 25 mM component): 178.6 kcal/mol | ΔS ([2]; 25 mM component): 2.128 KJ/(mol.K) | Tm ([2]; 55 mM component): 86.11 °C | ΔG ([2]; 55 mM component): 31.57 kcal/mol | ΔHcal ([2]; 55 mM component): 184.7 kcal/mol | ΔHcal/ΔHvH ([2]; 55 mM component): 0.929 | ΔHvH ([2]; 55 mM component): 198.7 kcal/mol | ΔS ([2]; 55 mM component): 2.149 KJ/(mol.K) | Tm ([2]; 200 mM component): 87.23 °C | ΔG ([2]; 200 mM component): 28.51 kcal/mol | ΔHcal ([2]; 200 mM component): 167.9 kcal/mol | ΔHcal/ΔHvH ([2]; 200 mM component): 1.024 | ΔHvH ([2]; 200 mM component): 163.9 kcal/mol | ΔS ([2]; 200 mM component): 1.956 KJ/(mol.K) | increase of BSA Tm (DSC) [2]: ~12 °C
